According to patent publication US8067445B2, “N,N-disubstituted aminoalkylbiphenyl antagonists of prostaglandin D2 receptors” (Panmira Pharmaceuticals, LLC, priority 2008, dated 2011):

Target: T1, human DP2 receptor (Homo sapiens, UniProt Q9Y5Y4)
T1 construct: expressed in transfected cells
T1 sequence (Q9Y5Y4 1-395): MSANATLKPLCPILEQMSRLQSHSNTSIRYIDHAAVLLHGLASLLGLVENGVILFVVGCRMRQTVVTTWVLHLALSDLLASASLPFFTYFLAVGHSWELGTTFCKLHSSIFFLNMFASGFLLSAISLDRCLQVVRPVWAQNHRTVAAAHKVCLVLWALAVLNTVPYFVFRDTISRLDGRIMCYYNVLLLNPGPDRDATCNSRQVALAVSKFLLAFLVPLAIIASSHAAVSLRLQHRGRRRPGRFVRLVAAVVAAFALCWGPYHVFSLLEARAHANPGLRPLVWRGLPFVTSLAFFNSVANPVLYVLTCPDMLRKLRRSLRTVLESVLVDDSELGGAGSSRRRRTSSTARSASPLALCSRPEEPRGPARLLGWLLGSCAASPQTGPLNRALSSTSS
Assay: DP2/CRTH2 radioligand binding assay ([3H]PGD2)
Conditions: [3H]PGD2 binding, membranes of HEK293 cells expressing human DP2; read-out: hDP2
Description: The ability of a compound to bind to the human DP2 receptor is assessed via a radioligand binding assay using [^3H]PGD2. HEK293 cells stably expressing recombinant human DP2 are resuspended in 10 mM Hepes, 7.4 containing 1 mM DTT, lysed and centrifuged at 75,000×g to pellet the membranes. The membranes are resuspended in 10 mM Hepes, 7.4 containing 1 mM DTT and 10% glycerol to approximately 5 mg protein/ml. Membranes (2-10 μg protein/well) are incubated in 96-well plates with 1 nM [^3H]PGD2 and test compound in Assay Buffer (50 mM Hepes, 10 mM MnCl2, 1 mM EDTA, plus or minus 0.2% human serum albumin, pH 7.4) for 60 minutes at room temperature. The reactions are terminated by rapid filtration through Whatman GF/C glass fibre filter plates. The filter plates were pre-soaked in 0.33% polyethylenimine for 30 minutes at room temperature then washed in Wash Buffer (50 mM Hepes, 0.5 M NaCl pH 7.4) prior to harvesting. After harvesting, the filter plates are washed 3 times with 1 ml cold Wash Buffer then dried. Scintillant is then added to the plates and the radioactivity retained on the filters is determined on a Packard TopCount (Perkin Elmer). Specific binding is determined as total radioactive binding minus non-specific binding in the presence of 10 μM PGD2. IC50s were determined using GraphPad prism analysis of drug titration curves.

SMILES	IC50 [nM]
CCN(Cc1cc(C(F)(F)F)ccc1-c1cc(CC(=O)O)ccc1OC)C(=O)NCc1cccnc1 [Compound 1-198]	< 300
CCN(Cc1ccc(OC)cc1-c1cc(CC(=O)O)ccc1OC)C(=O)OCc1ccc(F)cc1 [Compound 1-194, (2′-{[Ethyl-(4-fluoro-benzyloxycarbonyl)-amino]-methyl}-6,5′-dimethoxy-biphenyl-3-yl)-acetic acid]	< 300
CCN(Cc1cc(C(F)(F)F)ccc1-c1cc(Cl)cc(CC(=O)O)c1)C(=O)NCc1ccc(Cl)cc1 [Compound 1-192, {5-Chloro-2′-[3-(4-chloro-benzyl)-1-ethyl-ureidomethyl]-4′-trifluoromethyl-biphenyl-3-yl}-acetic acid]	< 300
CCN(Cc1cc(C(F)(F)F)ccc1-c1cc([C@@H](C)C(=O)N2C(=O)O[C@@H](c3ccccc3)[C@H]2C)ccc1OC)C(=O)C1CC1 [Compound 2-12, Cyclopropanecarboxylic acid ethyl-{2′-methoxy-5′-[(R)-1-methyl-2-((4R,5S)-4-methyl-2-oxo-5-phenyl-oxazolidin-3-yl)-2-oxo-ethyl]-4-trifluoromethyl-biphenyl-2-ylmethyl}-amide]	> 30000
CCN(Cc1cc(C(F)(F)F)ccc1-c1cc([C@H](C)C(=O)O)cc(C(F)(F)F)c1)C(=O)C1CC1 [Compound 1-238, (S)-2-{2′-[(Cyclopropanecarbonyl-ethyl-amino)-methyl]-5,4′-bis-trifluoromethyl-biphenyl-3-yl}-propionic acid]	< 300
CCN(Cc1cc(C(F)(F)F)ccc1-c1cc([C@H](C)C(=O)O)cc(C(F)(F)F)c1)C(=O)NCc1ccccc1 [Compound 1-240, (S)-2-[2′-(3-Benzyl-1-ethyl-ureidomethyl)-5,4′-bis-trifluoromethyl-biphenyl-3-yl]-propionic acid]	< 300
CCN(Cc1ccc(OC)cc1-c1cc(Cl)cc(CC(=O)O)c1)C(=O)NCc1ccccc1 [Compound 1-219, [2′-(3-Benzyl-1-ethyl-ureidomethyl)-5-chloro-5′-methoxy-biphenyl-3-yl]-acetic acid]	< 300
CCN(Cc1cc(-c2ccc(F)cn2)ccc1-c1cc(CC(=O)O)ccc1OC)C(=O)C1CC1 [Compound 1-249, [2′-[(Cyclopropanecarbonyl-ethyl-amino)-methyl]-4′-(5-fluoro-pyridin-2-yl)-6-methoxy-biphenyl-3-yl]-acetic acid]	< 300

The remaining lines, values ahead:

IC50 [nM]	SMILES
< 300	CCN(Cc1cc(C(F)(F)F)ccc1-c1cc(C(C)C(=O)O)cc(C(F)(F)F)c1)C(C)=O (stereo not shown) [Compound 1-213, 2-{2′-[(Acetyl-ethyl-amino)-methyl]-5,4′-bis-trifluoromethyl-biphenyl-3-yl}-propionic acid]
< 300	CCN(Cc1cc(C(F)(F)F)ccc1-c1cc(CC(=O)O)ccc1OC)C(=O)Cc1ccccc1 [Compound 1-207, {2′-[(Ethyl-phenylacetyl-amino)-methyl]-6-methoxy-4′-trifluoromethyl-biphenyl-3-yl}-acetic acid]
< 300	CCN(Cc1cc(C(F)(F)F)ccc1-c1cc(Cl)cc(CC(=O)O)c1)C(=O)c1ccccc1 [Compound 1-203, {2′-[(Benzoyl-ethyl-amino)-methyl]-5-chloro-4′-trifluoromethyl-biphenyl-3-yl}-acetic acid]
< 300	CCN(Cc1cc(-c2ccc3ncccc3c2)ccc1-c1cc(CC(=O)O)ccc1OC)C(=O)COc1ccc(Cl)cc1 [Compound 1-232, [2′-({[2-(4-Chloro-phenoxy)-acetyl]-ethyl-amino}-methyl)-6-methoxy-4′-quinolin-6-yl-biphenyl-3-yl]-acetic acid]
< 300	CCOc1ccc(-c2ccc(-c3cc(CC(=O)O)ccc3OC)c(CN(CC)C(=O)Cc3ccccc3)c2)cn1 [Compound 1-255, {4′-(6-Ethoxy-pyridin-3-yl)-2′-[(ethyl-phenylacetyl-amino)-methyl]-6-methoxy-biphenyl-3-yl}-acetic acid]
